This note sets out measurements from patent US9708321B2, “Spiro-quinazolinone derivatives and their use as positive allosteric modulators of mGluR4” (Merck Patent GmbH, priority 2013, dated 2017).

The experiment has as its target T1, hmGluR4 (Homo sapiens, UniProt Q14833).
T1 construct: host or cells: HEK293T
Put plainly: HEK-293 mGluR4 cells cAMP assay with EC20 L-Glutamate (HTRF). Particulars: positive allosteric activity at EC20 L-Glutamate, 10 μM Forskolin, HEK293T mGluR4 cells, cAMP HTRF; read-out: hrmGluR4/HEK293T-hmGluR4 (EC50). The format is cell-based. The method, then:
II. Biological Assays HEK-293 mGluR4 Cells cAMP Assay with EC20 L-Glutamate
Using mGluR4 suspension cell format, 10 μM Forskolin (final conc.) used to induce the production of cAMP.
Test the positive allosteric activity of the compounds of the invention at EC20 (2.3 μM for mGluR4 and 4.3 μM for mGluR6) L-Glutamate,
cAMP dymanic2 kit is intended for the direct quantitative determination of cAMP and its principle is based on HTRF technology.
• Cells: HEK293T mGluR4 cells from Multispan, cat# C1191a lot# C1191a-040910 • Culture Media: DMEM+GlutaMAX1+10% dialyzed FBS, 100 mM Sodium Pyruvate, 1 ug/ml puromycin. • Glutamine Starvation Media: DMEM without GlutaMax for plating the cells (glutamine starvation overnight). DMEM high Glucose, without phenol red, glutamine, or sodium pyruvate+10% dialyzed FBS, 100 mM Sodium Pyruvate, 1 ug/ml puromycin, 10 mM Hepes. • Hanks' balanced Salt Solution, HBSS from Invitrogen • Greiner 384 well white low volume high base plate (784075) • cAMP dynamic2 from Cisbio Bioassays • Glutamate: L-Glutamaic acid, monosodium salt, Monohydrate, 98%, from Sigma-Aldrich • Cell Preparation: split cells at 80%-90% confluence. The following day, rinse the cells with DMEM without GlutaMax and change to Glutamine Starvation Media. Incubate overnight. Assay: • Prepare compound plate: Perform compound serial dilution (uses Matrix 4341 plate), using the Bravo liquid handling platform protocol (compound serial dilution) which adds DMSO to columns 1-24 (except cols. 3 and 13). Serial dilute compounds located in columns 3 and 13 at a 1:3 ratio; 10 points (10 ul of 3 mM compound into 20 ul DMSO). Use the Bravo liquid handling platform to transfer 1 ul from the serial dilution plate into Matrix 4314 plate to create stamp plates. Prepare Compound Dilution Buffer: • Dilute 20 mM Forskolin (in DMSO) stock solution in HBSS buffer to make a 20 uM solution (forskolin buffer; 2× solution). To the forskolin buffer, add glutamate to a concentration of 8 uM (compound dilution buffer; 2× EC20 glutamate and forskolin). • Using a multidrop, add 50 ul/well of compound dilution buffer to columns 1-22 of the 2 ul compound stamp plate. Columns 23 and 24 receive forskolin buffer containing 400 uM glutamate (EC100 glutamate; 2× solution). Columns 1 and 2 receive compound dilution buffer containing EC20 glutamate, which is the basal control. • Add a glutamate dose response to row P of compound plate. Prepare the dose response by serial diluting glutamate at a 1:3 ratio in forskolin buffer starting at 2 mM glutamate (2×). Dilute the glutamate 9 times and transfer to compound plate. Prepare Cell Plates: • Harvest cells: Rinse cells with pre-warmed HBSS-10 mM HEPES (without Ca Mg) and dissociate the cells from the flask with versene. Centrifuge the cells, remove the supernatant and suspend in pre-warmed HBSS+10 mM Hepes. Count the cells and centrifuge. Remove the supernatant and suspend the cells in HBSS+Hepes (with Ca Mg) at a density of 400,000 cells/ml. Perform Assay: • Dispense 5 ul from the diluted compound plate into Greiner low volume cell plate using the Bravo liquid handling platform. Using a Multidrop with the small tubing cassette, dispense 5 ul of cells (2000 cells/well) onto the compounds contained in the low volume plates. Incubate the cells at 37° C., 5% CO2 for 30 minutes in the incubator. Assay for cAMP: • Prepare cAMP-d2 and anti-cAMP-Crytate according to the instructions for the two step assay (see Cisbio manual) and add 10 ul of the mixed reagent to each well of the assay plate using the Multidrop. Incubate at room temperature for 60 minutes and read on the Envision plate reader using the mGluR low volume cAMP HTRF 384 well protocol.
Background: Changes in cAMP serve as a functional read-out for many G protein-coupled receptors.

T1 sequence (Q14833 33-912): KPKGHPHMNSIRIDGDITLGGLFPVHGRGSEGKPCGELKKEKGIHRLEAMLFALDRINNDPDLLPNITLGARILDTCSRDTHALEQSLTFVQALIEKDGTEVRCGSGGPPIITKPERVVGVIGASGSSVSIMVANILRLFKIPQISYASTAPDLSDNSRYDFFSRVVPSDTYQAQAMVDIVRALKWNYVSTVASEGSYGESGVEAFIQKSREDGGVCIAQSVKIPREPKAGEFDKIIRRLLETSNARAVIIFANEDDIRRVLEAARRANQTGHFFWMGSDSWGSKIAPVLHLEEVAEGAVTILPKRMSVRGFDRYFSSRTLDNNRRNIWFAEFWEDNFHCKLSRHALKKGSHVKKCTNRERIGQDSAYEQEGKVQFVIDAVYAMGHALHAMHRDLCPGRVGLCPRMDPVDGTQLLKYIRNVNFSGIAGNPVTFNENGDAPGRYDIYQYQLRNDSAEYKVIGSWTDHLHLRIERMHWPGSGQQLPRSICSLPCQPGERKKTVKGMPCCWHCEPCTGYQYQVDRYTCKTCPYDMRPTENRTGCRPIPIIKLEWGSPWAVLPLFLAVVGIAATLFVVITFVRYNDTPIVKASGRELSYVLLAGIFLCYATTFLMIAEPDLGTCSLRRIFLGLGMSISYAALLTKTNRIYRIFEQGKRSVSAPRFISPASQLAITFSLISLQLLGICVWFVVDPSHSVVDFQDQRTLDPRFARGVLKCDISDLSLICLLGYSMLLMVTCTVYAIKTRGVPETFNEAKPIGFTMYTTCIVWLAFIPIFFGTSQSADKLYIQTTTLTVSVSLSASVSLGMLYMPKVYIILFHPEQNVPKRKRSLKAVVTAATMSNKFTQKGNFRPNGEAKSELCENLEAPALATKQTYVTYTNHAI

Consider `O=C1c2ccc(C(F)(F)F)cc2NC2(CCN(Cc3ccc(F)c(F)c3)CC2)N1c1ccc(OC(F)(F)F)cc1` [Compound 16, 1-(3,4-Difluorobenzyl)-3′-(4-(trifluoromethoxy)phenyl)-7′-(trifluoromethyl)-1′H-spiro[piperidine-4,2′-quinazolin]-4′(3′H)-one], for which the EC50 is under 1000 nM.

Take `COc1ccc(N2C(=O)c3ccccc3NC23CN(Cc2c(F)cccc2F)C3)cc1` [Compound 95, 1-(2,6-Difluorobenzyl)-3′-(4-methoxyphenyl)-1′H-spiro[azetidine-3,2′-quinazolin]-4′(3′H)-one]: the EC50 was 1000 to 10000 nM.

With `O=C1c2ccc(F)cc2NC2(CN(C(c3cccc(F)c3)C(F)(F)F)C2)N1c1ccc(OC(F)(F)F)cc1` (stereo not shown) [Compound 53, 7′-Fluoro-1-(2,2,2-trifluoro-1-(3-fluorophenyl)ethyl)-3′-(4-(trifluoromethoxy)phenyl)-1′H-spiro[azetidine-3,2′-quinazolin]-4′(3′H)-one], the EC50 was under 1000 nM.

As for `COc1ccc(N2C(=O)c3ccccc3NC23CCN(Cc2cccc(C(F)(F)F)c2)CC3)cc1` [Compound 96, 3′-(4-Methoxyphenyl)-1-(3-(trifluoromethyl)benzyl)-1′H-spiro[piperidine-4,2′-quinazolin]-4′(3′H)-one], the EC50 is 1000 to 10000 nM.

Turning to `COc1ccc(N2C(=O)c3ccc(OC)cc3NC23CCN(Cc2ccc(F)c(F)c2)CC3)cc1` [Compound 39, 1-(3,4-Difluorobenzyl)-7′-methoxy-3′-(4-methoxyphenyl)-1′H-spiro[piperidine-4,2′-quinazolin]-4′(3′H)-one], the EC50 is under 1000 nM.

On to `CC(=O)c1ccc2c(c1)NC1(CCN(Cc3ccc(F)c(F)c3)CC1)N(c1ccc(OC(F)(F)F)cc1)C2=O` [Compound 77, 7′-Acetyl-1-(3,4-difluorobenzyl)-3′-(4-(trifluoromethoxy)phenyl)-1′H-spiro[piperidine-4,2′-quinazolin]-4′(3′H)-one], for which the EC50 was 1000 to 10000 nM.

In the case of `Cc1ccc(CN2CCC3(CC2)Nc2cc(Br)ccc2C(=O)N3c2ccc(OC(F)(F)F)cc2)o1` [Compound 113, 7′-Bromo-1-((5-methylfuran-2-yl)methyl)-3′-(4-(trifluoromethoxy)phenyl)-1′H-spiro[piperidine-4,2′-quinazolin]-4′(3′H)-one], the EC50 lay in the range of 1000 to 10000 nM.

`COCCOc1ccc2c(c1)NC1(CCN(Cc3ccc(F)c(F)c3)CC1)N(c1ccc(OC(F)(F)F)cc1)C2=O` [Compound 121, 1-(3,4-Difluorobenzyl)-7′-(2-methoxyethoxy)-3′-(4-(trifluoromethoxy)phenyl)-1′H-spiro[piperidine-4,2′-quinazolin]-4′(3′H)-one]: the EC50 lay in the range of 1000 to 10000 nM.

As for `CC(C)OC(=O)c1ccc2c(c1)NC1(CCN(Cc3ccc(F)c(F)c3)CC1)N(c1ccc(OC(F)(F)F)cc1)C2=O` [Compound 31, Isopropyl 1-(3,4-difluorobenzyl)-4′-oxo-3′-(4-(trifluoromethoxy)phenyl)-3′,4′-dihydro-1′H-spiro[piperidine-4,2′-quinazoline]-7′-carboxylate], the EC50 was under 1000 nM.

As to `Cc1cc2cc(N3C(=O)c4ccc(Br)cc4NC34CCN(Cc3ccc(F)c(F)c3)CC4)ccc2o1` [Compound 2, 7′-Bromo-1-(3,4-difluorobenzyl)-3′-(2-methylbenzofuran-5-yl)-1′H-spiro[piperidine-4,2′-quinazolin]-4′(3′H)-one], the EC50 was under 1000 nM.

For the compound `COc1ccc(N2C(=O)c3ccccc3NC23CN(Cc2ccccc2F)C3)cc1` [Compound 84, 1-(2-Fluorobenzyl)-3′-(4-methoxyphenyl)-1′H-spiro[azetidine-3,2′-quinazolin]-4′(3′H)-one], the EC50 lay in the range of 1000 to 10000 nM.

`CCOC(=O)c1ccc2c(c1)NC1(CN(C(c3ccc(F)c(F)c3)C(F)(F)F)C1)N(c1ccc(OC(F)(F)F)cc1)C2=O` (stereo not shown) [Compound 34, Ethyl 1-(1-(3,4-difluorophenyl)-2,2,2-trifluoroethyl)-4′-oxo-3′-(4-(trifluoromethoxy)phenyl)-3′,4′-dihydro-1′H-spiro[azetidine-3,2′-quinazoline]-7′-carboxylate]: the EC50 is under 1000 nM.

With `COc1ccc(N2C(=O)c3ccc(-c4ccco4)cc3NC23CCN(Cc2ccc(F)c(F)c2)CC3)cc1` [Compound 11, 1-(3,4-Difluorobenzyl)-7′-(furan-2-yl)-3′-(4-methoxyphenyl)-1′H-spiro[piperidine-4,2′-quinazolin]-4′(3′H)-one], the EC50 was under 1000 nM.

For the compound `CCOC(=O)c1ccc2c(c1)NC1(CCN(Cc3ccc(F)c(F)c3)CC1)N(c1ccc(OC(F)(F)F)cc1)C2=O` [Compound 29, Ethyl 1-(3,4-difluorobenzyl)-4′-oxo-3′-(4-(trifluoromethoxy)phenyl)-3′,4′-dihydro-1′H-spiro[piperidine-4,2′-quinazoline]-7′-carboxylate], the EC50 is under 1000 nM.

As to `O=C1c2ccc(Br)cc2NC2(CCN(Cc3ccncc3)CC2)N1c1ccc(OC(F)(F)F)cc1` [Compound 97, 7′-Bromo-1-(pyridin-4-ylmethyl)-3′-(4-(trifluoromethoxy)phenyl)-1′H-spiro[piperidine-4,2′-quinazolin]-4′(3′H)-one], the EC50 lay in the range of 1000 to 10000 nM.

For `COc1ccc(N2C(=O)c3ccccc3NC23CN(Cc2cccc(F)c2)C3)cc1` [Compound 93, 1-(3-Fluorobenzyl)-3′-(4-methoxyphenyl)-1′H-spiro[azetidine-3,2′-quinazolin]-4′(3′H)-one], the EC50 lay within 1000 to 10000 nM.

With `O=C1c2ccc(Br)cc2NC2(CCN(Cc3ccc(F)c(F)c3)CC2)N1c1ccc(C(F)(F)F)cc1` [Compound 52, 7′-Bromo-1-(3,4-difluorobenzyl)-3′-(4-(trifluoromethyl)phenyl)-1′H-spiro[piperidine-4,2′-quinazolin]-4′(3′H)-one], the EC50 is under 1000 nM.

As for `COc1ccc(N2C(=O)c3ccccc3NC23CN(Cc2ccc(Cl)cc2)C3)cc1` [Compound 85, 1-(4-Chlorobenzyl)-3′-(4-methoxyphenyl)-1′H-spiro[azetidine-3,2′-quinazolin]-4′(3′H)-one], the EC50 fell in the range of 1000 to 10000 nM.

Turning to `COc1ccc(N2C(=O)c3cc(O)ccc3NC23CCN(Cc2ccc(F)c(F)c2)CC3)cc1` [Compound 122, 1-(3,4-Difluorobenzyl)-6′-hydroxy-3′-(4-methoxyphenyl)-1′H-spiro[piperidine-4,2′-quinazolin]-4′(3′H)-one], the EC50 lay in the range of 1000 to 10000 nM.

As for `COc1ccc(N2C(=O)c3ccc(Cl)cc3NC23CCN(Cc2ccccc2Cl)CC3)cc1` [Compound 62, 7′-Chloro-1-(2-chlorobenzyl)-3′-(4-methoxyphenyl)-1′H-spiro[piperidine-4,2′-quinazolin]-4′(3′H)-one], the EC50 is under 1000 nM.

Consider `COc1ccc(N2C(=O)c3ccccc3NC23CCN(Cc2cc(Cl)ccc2Cl)CC3)cc1` [Compound 13, 1-(2,5-Dichlorobenzyl)-3′-(4-methoxyphenyl)-1′H-spiro[piperidine-4,2′-quinazolin]-4′(3′H)-one], for which the EC50 was under 1000 nM.

Regarding `Cn1cccc1CN1CCC2(CC1)Nc1cc(Br)ccc1C(=O)N2c1ccc(OC(F)(F)F)cc1` [Compound 120, 7′-Bromo-1-((1-methyl-1H-pyrrol-2-yl)methyl)-3′-(4-(trifluoromethoxy)phenyl)-1′H-spiro[piperidine-4,2′-quinazolin]-4′(3′H)-one], the EC50 lay within 1000 to 10000 nM.
